Laboratory results taken from patent US20200247849A1, “PEPTIDE AGONISTS AND ANTAGONISTS OF TLR4 ACTIVATION” (PEPTICOM LTD, priority 2016, published 2020).

Tests used:
[1] = test system: TLR4 with MD2 or CD14 co-receptor; assay: Reporter gene (SEAP) PAMP assay in NIH3T3 cells expressing TLR4 with MD2 or CD14 co-receptor; assay type: cell-based; conditions: summary of FIGS. 6A-6V
Source text: FIGS. 6A-6V show the dose response inhibitor/activator effects of the designed peptides using a reporter gene assay. The reporter gene assay is composed of NIH3T3 cells transfected with either MD2 or CD14 along with TLR4 and the NF-κB-inducible reporter gene Secreted Alkaline Phosphatase (SEAP) to monitor TLR4 activation (Burger-[…] al. 2010, A new cell-based innate immune receptor assay for the examination of receptor activity, ligand specificity, signaling pathways and the detection of pyrogens. […] The receptors are coupled to for the detection of inhibitory activity, cells were treated with the peptide prior to exposure to LPS and the response to LPS is measured at variable peptide doses (as labeled). The detection of cell activation was performed using the peptide alone, at variable doses, as indicated in the respective graphs. The following presents in more details the experimental procedures. Experimental setup: The cell-based Assay is performed with different NIH3T3 reporter cell lines (NIH 3T3 PRR SEAP-TLR4/CD14 or -TLR4/MD2) and the control cell line NIH 3T3 SEAP. The NIH3T3 SEAP cell line is used in order to determine the background of the alkaline phosphatase expression. It is a cell line stably transfected with only the reporter gene plasmid. For each assay a vial of the master cell bank is revitalized and seeded in a standard cell culture flask (75 cm^2 T-Flask) at day one. Cells are cultured in 20 ml culture media (DMEM supplemented with 10% FCS (heat inactivated), 50 units/ ml penicillin, 0.05 mg/ ml streptomycin and 2 mmol/ L L-glutamine). The cells are cultured at 37° C. in a 5% CO2 humidified atmosphere. At Day 1: For the PAMP Assay cells are seeded in a 96-well plate at a density of 0.3.10^5 cells/well in a final volume of 100 μl culture media (DMEM, 10% FCS (heat inactivated)). To ensure equal culture conditions the 96-well cell culture plates are placed side by side and cultivated in a humidified CO2 incubator (37° C. and 5% CO2). […] After a cultivation period of 24 h the media is removed and replaced with the respective volume of fresh media (DMEM, 0.5% FCS (heat inactivated)).The lyophilized peptides are stored in a freezer at -20° C. upon arrival. For the experiments they are dissolved in DMSO (to the highest possible concentration). Before opening the peptides are allowed to equilibrate to room temperature (in order to reduce the uptake of moisture). For each experiment the stock solution is diluted in DMEM to the appropriate working concentration. […] Sonication was also used to help dissolve the peptides. Immediately after replacing the media, the diluted peptides are applied in a serial dilution to the cells and directly after that the agonist is added to the cells. After adding peptide and […] the final volume in each well of a 96 well plate amounts 100 μl/well. The culture medium containing 0.5% FCS is used as a negative reference item. The induction is performed for 18 h at 37° C. and 5% CO2. At Day 3: To determine the final SEAP value, 50 μl of the supernatant is carefully transferred in a new 96-well plate (Greiner-F-plate) and 50 μl of the substrate (pNPP; p-nitrophenyl phosphate) is added. SEAP catalyzes the hydrolysis of pNPP to the final product para-nitrophenol (yellow) which can be detected by a photometric analysis using an UV-VIS reader at 405 nm. […] The results of FIGS. 6A-6V with respect to peptide activity are summarized in Table 1 above with respect to the type of effect of the respective peptide (activation/inhibition) and with respect to the corresponding co-receptor (MD2/CD14). Data concerning SEQ ID No. 22 with respect to co-receptor CD14 is in preparation.

[2] = test system: primary mouse macrophages (expressing TLR4, MD2 and CD14); assay: TNF-a release from primary mouse macrophages exposed to LPS; assay type: cell-based; conditions: FIG. 7
Source text: The top graph presents TNF-a release from primary mouse macrophages exposed to LPS treated with either peptide SEQ ID No. 9 or a control peptide while the bottom graph presents TNF-a release from primary mouse macrophages exposed to PAM3 treated with either peptide SEQ ID No. 9 or a control peptide. […] This method had been previously described (Lerner et al. 2011, Heparanase powers a chronic inflammatory circuit that promotes colitis-associated tumorigenesis in mice. J Clin Invest. 121(5): 1709-1721).

Sequence: ILFMGMKWL (Inhibitor) [SEQ ID No. 9]
- Co-Receptor/s ([1]; co-receptor (MD2/CD14) via which the effect occurs): MD2
- Activity ([1]; type of effect (activation/inhibition) on TLR4): Inhibitor
- effect on LPS-induced TNF-a release [2]: inhibitory effect
